# Results published in patent publication US12686704B2, “Procoagulant peptides and use thereof” (RAMBAM MED-TECH LTD., priority 2021, dated 2026).
# Test system: HEK-293 cells with full length TF (TF) or truncated TF
# Test: p-p38 signaling in TF-transfected HEK-293 cells (western blot)
# Assay type: cell-based
# Settings: 2 hours; cells with truncated TF devoid of the intracellular part
# Experimental: FIG. 12 includes a vertical bar graph and a micrograph of a western blot analysis. Procoagulant peptide 16AC was added for 2 hours to transfected HEK-293 cells with full length TF (TF) or truncated TF devoid of the intracellular part (ΔTF). […] Control—vector only (Vo); transfection with the empty plasmid, with no additional DNA.
# Additionally, the inventor explored binding interaction between the procoagulant peptide of the invention and TF. Briefly, the procoagulant peptide 16AC was added for 2 hours to transfected HEK-293 cells with full length TF (TF) or truncated TF devoid of the intracellular part (ATF).
substance,measurement,value
"acetyl-GSKRRKLRVYLHCT-amid (Ac-GSKRRKLRVYLHCT-NH2) [Peptide 16AC, peptide 16 comprising a C-terminal amid group and an N-terminal acetyl group]",increase in p-p38 intracellular signaling,not observed
